# Values of other authors as cited in patent US20240299307A1, “Extended-release compositions comprising atomoxetine” (Tulex Pharmaceuticals, Inc., priority 2021, published 2024).
# Where two headings read alike, the source gives them in different places.
structure (smiles),measurement,setting,value
CNCC[C@@H](Oc1ccccc1C)c1ccccc1 [ATO],solubility,pH of about 1,about 18 mg/mL
same,solubility,pH of about 4.5 (highest solubility),about 52 mg/mL
same,decrease of solubility relative to pH about 4.5,pH of greater than about 4.5,approximately 10 fold
same,decrease of solubility relative to pH about 4.5,pH of less than 4.5,approximately 3 fold
